According to PubChem BioAssay (NCI):
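At the GI50, growth is halved. Definition used: TGI = concentration required for complete inhibition of growth.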

Tests used:
Experiment in all cases: inhibition of tumour cell growth, NCI panel, 384-well format
786-0 renal = system: 786-0 renal
A498 renal = system: A498 renal
A549 NSCLC = system: A549 NSCLC
ACHN renal = system: ACHN renal
BT-549 breast = system: BT-549 breast
CAKI-1 renal = system: CAKI-1 renal
CCRF-CEM leukemia = system: CCRF-CEM leukemia
COLO 205 colon = system: COLO 205 colon
DU-145 prostate = system: DU-145 prostate
EKVX NSCLC = system: EKVX NSCLC
HCC-2998 colon = system: HCC-2998 colon
HCT-116 colon = system: HCT-116 colon
HCT-15 colon = system: HCT-15 colon
HL-60(TB) leukemia = system: HL-60(TB) leukemia
HOP-62 NSCLC = system: HOP-62 NSCLC
HOP-92 NSCLC = system: HOP-92 NSCLC
HS 578T breast = system: HS 578T breast
HT29 colon = system: HT29 colon
IGROV1 ovarian = system: IGROV1 ovarian
K-562 leukemia = system: K-562 leukemia
KM12 colon = system: KM12 colon
LOX IMVI melanoma = system: LOX IMVI melanoma
M14 melanoma = system: M14 melanoma
MALME-3M melanoma = system: MALME-3M melanoma
MCF7 breast = system: MCF7 breast
MDA-MB-231 breast = system: MDA-MB-231 breast
MDA-MB-435 melanoma = system: MDA-MB-435 melanoma
MDA-MB-468 breast = system: MDA-MB-468 breast
MOLT-4 leukemia = system: MOLT-4 leukemia
NCI-H226 lung = system: NCI-H226 lung
NCI-H23 lung = system: NCI-H23 lung
NCI-H322M lung = system: NCI-H322M lung
NCI-H460 NSCLC = system: NCI-H460 NSCLC
NCI/ADR-RES ovarian = system: NCI/ADR-RES ovarian
OVCAR-3 ovarian = system: OVCAR-3 ovarian
OVCAR-4 ovarian = system: OVCAR-4 ovarian
OVCAR-5 ovarian = system: OVCAR-5 ovarian
OVCAR-8 ovarian = system: OVCAR-8 ovarian
PC-3 prostate = system: PC-3 prostate
RPMI-8226 leukemia = system: RPMI-8226 leukemia
RXF 393 renal = system: RXF 393 renal
SF-268 CNS = system: SF-268 CNS
SF-295 CNS = system: SF-295 CNS
SF-539 CNS = system: SF-539 CNS
SK-MEL-2 melanoma = system: SK-MEL-2 melanoma
SK-MEL-28 melanoma = system: SK-MEL-28 melanoma
SK-MEL-5 melanoma = system: SK-MEL-5 melanoma
SK-OV-3 ovarian = system: SK-OV-3 ovarian
SN12C renal = system: SN12C renal
SNB-19 CNS = system: SNB-19 CNS
SNB-75 CNS = system: SNB-75 CNS
SW-620 colon = system: SW-620 colon
T-47D breast = system: T-47D breast
TK-10 renal = system: TK-10 renal
U251 glioblastoma = system: U251 glioblastoma
UACC-257 melanoma = system: UACC-257 melanoma
UACC-62 melanoma = system: UACC-62 melanoma
UO-31 renal = system: UO-31 renal

Structure (SMILES): CC(C)c1cnc(-c2cc(Cl)ccc2F)cc1Nc1ccncc1C(=O)NC(CO)CO
- GI50 ([…]-0 renal): 9.73 µM
- TGI (786-0 renal): 21.5 µM
- GI50 (A498 renal): 2.33 µM
- TGI (A498 renal): 16.1 µM
- GI50 (A549 NSCLC): 2.22 µM
- TGI (A549 NSCLC): 15 µM
- GI50 (ACHN renal): 2.34 µM
- TGI (ACHN renal): 15.3 µM
- GI50 (BT-549 breast): 0.383 µM
- TGI (BT-549 breast): 3.2 µM
- GI50 (CAKI-1 renal): 10.4 µM
- TGI (CAKI-1 renal): 22.1 µM
- GI50 (CCRF-CEM leukemia): 5.22 µM
- TGI (CCRF-CEM leukemia): 17.1 µM
- GI50 (COLO 205 colon): 2.56 µM
- TGI (COLO 205 colon): 14 µM
- GI50 (DU-145 prostate): 11.5 µM
- TGI (DU-145 prostate): 23.7 µM
- GI50 (EKVX NSCLC): 2.57 µM
- TGI (EKVX NSCLC): 16.8 µM
- GI50 (HCC-2998 colon): 15.9 µM
- TGI (HCC-2998 colon): 29.4 µM
- GI50 (HCT-116 colon): 10.7 µM
- TGI (HCT-116 colon): 22.6 µM
- GI50 (HCT-15 colon): 12.7 µM
- TGI (HCT-15 colon): 25.3 µM
- GI50 (HL-60(TB) leukemia): 0.263 µM
- TGI (HL-60(TB) leukemia): 1.57 µM
- GI50 (HOP-62 NSCLC): 10.6 µM
- TGI (HOP-62 NSCLC): 22.4 µM
- GI50 (HOP-92 NSCLC): 6.81 µM
- TGI (HOP-92 NSCLC): 19.8 µM
- GI50 (HS 578T breast): 10.5 µM
- TGI (HS 578T breast): 22.3 µM
- GI50 (HT29 colon): 13.3 µM
- TGI (HT29 colon): 26.1 µM
- GI50 (IGROV1 ovarian): 13.2 µM
- TGI (IGROV1 ovarian): 26 µM
- GI50 (K-562 leukemia): 7.06 µM
- TGI (K-562 leukemia): 19.5 µM
- GI50 (KM12 colon): 2.76 µM
- TGI (KM12 colon): 15.9 µM
- GI50 (LOX IMVI melanoma): 1.1 µM
- TGI (LOX IMVI melanoma): 2.82 µM
- GI50 (M14 melanoma): 4.27 µM
- TGI (M14 melanoma): 19 µM
- GI50 (MALME-3M melanoma): 2.14 µM
- TGI (MALME-3M melanoma): 11.2 µM
- GI50 (MCF7 breast): 0.124 µM
- TGI (MCF7 breast): 5.16 µM
- GI50 (MDA-MB-231 breast): 0.964 µM
- TGI (MDA-MB-231 breast): 14.5 µM
- GI50 (MDA-MB-435 melanoma): 9.98 µM
- TGI (MDA-MB-435 melanoma): 21.6 µM
- GI50 (MDA-MB-468 breast): 4.51 µM
- TGI (MDA-MB-468 breast): 15.1 µM
- GI50 (MOLT-4 leukemia): 5.48 µM
- TGI (MOLT-4 leukemia): 17.7 µM
- GI50 (NCI-H226 lung): 1.2 µM
- TGI (NCI-H226 lung): 12.2 µM
- GI50 (NCI-H23 lung): 0.892 µM
- TGI (NCI-H23 lung): 9.05 µM
- GI50 (NCI-H322M lung): 2.01 µM
- TGI (NCI-H322M lung): 15.6 µM
- GI50 (NCI-H460 NSCLC): 12.3 µM
- TGI (NCI-H460 NSCLC): 24.8 µM
- GI50 (NCI/ADR-RES ovarian): 10.8 µM
- TGI (NCI/ADR-RES ovarian): 22.9 µM
- GI50 (OVCAR-3 ovarian): 12.8 µM
- TGI (OVCAR-3 ovarian): 25.5 µM
- GI50 (OVCAR-4 ovarian): 0.581 µM
- TGI (OVCAR-4 ovarian): 2.65 µM
- GI50 (OVCAR-5 ovarian): 14.1 µM
- TGI (OVCAR-5 ovarian): 27.1 µM
- GI50 (OVCAR-8 ovarian): 1.57 µM
- TGI (OVCAR-8 ovarian): 5.09 µM
- GI50 (PC-3 prostate): 2.22 µM
- TGI (PC-3 prostate): 11.7 µM
- GI50 (RPMI-8226 leukemia): 0.172 µM
- TGI (RPMI-8226 leukemia): 2 µM
- GI50 (RXF 393 renal): 1.36 µM
- TGI (RXF 393 renal): 9.34 µM
- GI50 (SF-268 CNS): 3.8 µM
- TGI (SF-268 CNS): 17.6 µM
- GI50 (SF-295 CNS): 5.02 µM
- TGI (SF-295 CNS): 17.7 µM
- GI50 (SF-539 CNS): 1.16 µM
- TGI (SF-539 CNS): 11.6 µM
- GI50 (SK-MEL-2 melanoma): 20.5 µM
- TGI (SK-MEL-2 melanoma): 34.8 µM
- GI50 (SK-MEL-28 melanoma): 7.17 µM
- TGI (SK-MEL-28 melanoma): 20.5 µM
- GI50 (SK-MEL-5 melanoma): 11.6 µM
- TGI (SK-MEL-5 melanoma): 23.8 µM
- GI50 (SK-OV-3 ovarian): 0.832 µM
- TGI (SK-OV-3 ovarian): 14.2 µM
- GI50 (SN12C renal): 11.4 µM
- TGI (SN12C renal): 23.6 µM
- GI50 (SNB-19 CNS): 13.1 µM
- TGI (SNB-19 CNS): 25.9 µM
- GI50 (SNB-75 CNS): 12.1 µM
- TGI (SNB-75 CNS): 24.5 µM
- GI50 (SW-620 colon): 5.89 µM
- TGI (SW-620 colon): 19.5 µM
- GI50 (T-47D breast): 3.81 µM
- TGI (T-47D breast): 17.2 µM
- GI50 (TK-10 renal): 10.3 µM
- TGI (TK-10 renal): 22.1 µM
- GI50 (U251 glioblastoma): 13.7 µM
- TGI (U251 glioblastoma): 26.6 µM
- GI50 (UACC-257 melanoma): 12.5 µM
- TGI (UACC-257 melanoma): 25.1 µM
- GI50 (UACC-62 melanoma): 0.852 µM
- TGI (UACC-62 melanoma): 18.2 µM
- GI50 (UO-31 renal): 12.7 µM
- TGI (UO-31 renal): 25.4 µM
